Data set [1] in a line: H+/Na+ transport assay of bead-derived peptides (one-point).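 Further: relative to parent gramicidin A activity set to 1.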 Further details: key: relative activity; mean of two control wells = 1.00. It counts as biochemical. To be noted: bead-derived peptide solution, EYPC/EYPG LUVs. Here is the method:
(§1) Each type of assay must be simplified and miniaturized to assess the activities of the library peptides in a 96-well format for the high-throughput screening.
H+/Na+ transport assay of bead-derived peptides.1,2,3 Trisodium 8-hydroxypyrene-1,3,6-trisulfonate
mini-extruder apparatus (Avanti Polar Lipids).
28.9 µmol) in CHCl3 (225 µL) and egg yolk phosphatidylglycerol (1.20 mg, 1.56 µmol) in CHCl3 (60.0 µL)
The thin film was hydrated and
1.0 mM pyranine) by sonication.
A suspension of the LUVs was immediately
used for the H+/Na+ transport assay.
The diluted solution of peptide
flat-bottom 96-well plate (655086, Greiner bio-one).
was vortexed at room temperature for 30 min.
(5/95, 3.0 µL) and the LUV suspension were mixed in each plate to determine 100% lysis. The untreated
LUV suspension was used to determine 0% lysis.
normalized against 100% lysis by Triton X-100 (Imax) and 0% lysis (I0) as following, where Ix is the
fluorescence intensity (Supplementary Equation 2).
I = 100 × (Ix – I0) / (Imax – I0) (2)
The mean value of the two control wells was set to 1.00. […]

Data set [2] has as its system Streptococcus pyogenes SSI-9. The data set can be described thus: Antibacterial activity assay of bead-derived peptides (three concentrations). It counts as cell-based. To be noted: S. pyogenes, bead-derived peptide solution, three concentrations. Further details: key: +++: inhibition by the 640-fold diluted peptide solution; ++: inhibition by the 160-fold diluted solution; +: inhibition by the 40-fold diluted solution; -: no inhibition. The procedure: as §1
Next, the peptides in groups A and B were subjected to the antibacterial assay and structural determination. Three peptide concentrations were applied to evaluate the growth inhibition of S. pyogenes and determine the antibacterial activity. […] Finally, the structures of the peptides were determined. […]
Antibacterial activity assay of bead-derived peptides. The stock solution of the peptide library was 4- and […]
16-fold diluted with DMSO. The non-diluted stock solution, 4-fold diluted solution, and 16-fold diluted […]
solution were transferred to the 96-well round-bottom plate (3367, Corning, 1.0 µL/well). To the solution of […]
peptide in each well was added a suspension of Streptococcus pyogenes SSI-9 strain in cation adjusted […]
Mueller Hinton Broth [40.0 µL, 2 × 10^5 colony forming units (CFU), 21 g/L Mueller Hinton Broth (Difco), 50 […]
mg/L Ca2+ (adjusted with CaCl2•2H2O), and 25 mg/L Mg2+ (adjusted with MgCl2•6H2O)] supplemented with […]
5% laked horse blood (Nippon Biotest Laboratories). The plate was incubated at 37 °C for 18 h, and the precipitation of the grown cells was examined. […]

Data set [3] has as its system P388 mouse leukemia cells. Conditions: 92 h. From the text: Each type of assay must be simplified and miniaturized to assess the activities of the library peptides in a 96-well format for the high-throughput screening. […]
Mammalian cytotoxicity assay of bead-derived peptides . P388 cells were obtained from Institute of
Development Aging and Cancer (Tohoku University). The cells were maintained with growth medium
[RPMI1640 with phenol red ( Fujifilm Wako Pure Chemical) supplemented with 10% heat -inactivated fetal
bovine serum, pe nicillin G (100 units/mL), and streptomycin (100 µg/mL)] under atmosphere of 5% CO 2 at
The collected cells were resuspended into
the growth medium at 2 × 10^4 cells/mL. The stock solutions of the peptide library were 250-fold diluted
with the growth medium. Aliquots of the medium (100 µL) containing peptides and the latter medium
containing P388 cells (100 µL) were mixed in a 96-well cell culture plate (TR5003, TrueLine). The final
concentration of P388 cells was 1 × 10^4 cells/mL. After incubation under atmosphere of 5% CO2 at 37 °C
for 92 h, the numbers of viable cells were determined by
2-(4-iodophenyl)-3-(4-nitrophenyl)-5-(2,4-disulfophenyl)-2H-tetrazolium, monosodium salt (WST-1) assay.
A solution of 1-methoxy-5-methylphenazinium methyl sulfate (1-methoxy PMS) and WST-1 in the growth
medium (1-methoxy PMS 0.70 mg/mL in Milli-Q/WST-1 3.6 mg/mL in pH 7.4 HEPES buffer = 1/9) was
added to each well of the plate (10.0 µL/well). The plate was incubated for 4 h under atmosphere of 5% CO2
at 37 °C. The absorbance of each well at 415 nm was measured using a Benchmark microplate reader
(Bio-Rad). The cytotoxicities were evaluated as cell viability (%). […]

SMILES strings stand for the structures. Where a SMILES comes first, the peptide text is derived from it. [ ]: non-standard residue; d: D form. The star is where a group is joined. NHCH2CH2OH = OCCN*; For = O=C*

In the case of `CC(C)C[C@@H](NC(=O)[C@H](C)NC(=O)[C@H](NC(=O)[C@H](C)NC(=O)CNC(=O)[C@@H](NC=O)C(C)C)[C@H](C)O)C(=O)N[C@H](C(=O)N[C@H](CC(C)C)C(=O)N[C@@H](Cc1c[nH]c2ccccc12)C(=O)N[C@H](CC(C)C)C(=O)N[C@@H](Cc1c[nH]c2ccccc12)C(=O)N[C@@H](C(=O)N[C@@H](Cc1c[nH]c2ccccc12)C(=O)N[C@@H](C(=O)N[C@@H](Cc1c[nH]c2ccccc12)C(=O)NCCO)C(C)C)C(C)C)C(C)C` [compound 569] (For-VGA[dT]A[dL]V[dL]W[dL]W[dV]W[dV]W-NHCH2CH2OH), the “H+/Na+ transport activity normalized against the value of 1 (1.00)” value in data set [1] is reported as 1.01. The antibacterial activity result in data set [2] is reported as “-”. This compound registered a cell viability/% in data set [3] of 100.0%.
Taken in the same sequence, the figures for `CNC(=O)C[C@@H](NC(=O)[C@@H](NC(=O)[C@@H](CC(C)C)NC(=O)[C@H](C)NC(=O)[C@@H](CC(C)C)NC(=O)[C@H](C)NC(=O)CNC(=O)[C@@H](NC=O)C(C)C)C(C)C)C(=O)N[C@@H](Cc1c[nH]c2ccccc12)C(=O)N[C@H](CC(C)C)C(=O)N[C@@H](Cc1c[nH]c2ccccc12)C(=O)N[C@H](CC(C)C)C(=O)N[C@@H](Cc1c[nH]c2ccccc12)C(=O)N[C@@H](C(=O)N[C@@H](Cc1c[nH]c2ccccc12)C(=O)NCCO)[C@H](C)O` [compound 638] (For-VGA[dL]A[dL]V[dD](NHMe)W[dL]W[dL]W[dT]W-NHCH2CH2OH) were 1.01, “-” and 100.0%.
Taken in the same sequence, the figures for `CC(C)C[C@@H](NC(=O)[C@H](C)NC(=O)CNC(=O)[C@@H](NC=O)C(C)C)C(=O)N[C@@H](C)C(=O)N[C@H](CC(C)C)C(=O)N[C@H](C(=O)N[C@H](CC(C)C)C(=O)N[C@@H](Cc1c[nH]c2ccccc12)C(=O)N[C@H](CC(C)C)C(=O)N[C@@H](Cc1c[nH]c2ccccc12)C(=O)N[C@@H](C(=O)N[C@@H](Cc1c[nH]c2ccccc12)C(=O)N[C@H](CC(C)C)C(=O)N[C@@H](Cc1c[nH]c2ccccc12)C(=O)NCCO)C(C)C)C(C)C` [compound 646] (For-VGA[dL]A[dL]V[dL]W[dL]W[dV]W[dL]W-NHCH2CH2OH) were 1.11, “+” and 0.2%.
The like results for `CC(C)C[C@@H](NC(=O)[C@H](C)NC(=O)[C@H](NC(=O)[C@H](C)NC(=O)CNC(=O)[C@@H](NC=O)C(C)C)C(C)C)C(=O)N[C@H](C(=O)N[C@@H](C(=O)N[C@@H](Cc1c[nH]c2ccccc12)C(=O)N[C@H](CC(C)C)C(=O)N[C@@H](Cc1c[nH]c2ccccc12)C(=O)N[C@@H](C(=O)N[C@@H](Cc1c[nH]c2ccccc12)C(=O)N[C@H](CC(C)C)C(=O)N[C@@H](Cc1c[nH]c2ccccc12)C(=O)NCCO)C(C)C)C(C)C)C(C)C` [compound 660] (For-VGA[dV]A[dL]V[dV]W[dL]W[dV]W[dL]W-NHCH2CH2OH) were, in that order, 1.06, “++” and 15.6%.
For the compound `CC(C)C[C@@H](NC(=O)[C@H](Cc1c[nH]c2ccccc12)NC(=O)[C@@H](CC(C)C)NC(=O)[C@H](Cc1c[nH]c2ccccc12)NC(=O)[C@@H](CC(C)C)NC(=O)[C@H](Cc1c[nH]c2ccccc12)NC(=O)[C@H](NC(=O)[C@@H](NC(=O)[C@H](NC(=O)[C@H](C)NC(=O)[C@H](NC(=O)[C@H](C)NC(=O)CNC(=O)[C@@H](NC=O)C(C)C)C(C)C)C(C)C)C(C)C)C(C)C)C(=O)N[C@@H](Cc1c[nH]c2ccccc12)C(=O)NCCO` [compound 662] (For-VGA[dV]A[dV]V[dV]W[dL]W[dL]W[dL]W-NHCH2CH2OH), the “H+/Na+ transport activity normalized against the value of 1 (1.00)” value in data set [1] was found to be 1.04. In data set [2], the antibacterial activity entry is “+++”. In addition, in data set [3], the cell viability/% was found to be 1.5%.
